According to patent US9274101B2 (BIOLOG, Inc., priority 2001, dated 2016):
Where two headings read alike, the source gives them in different places. Where a SMILES comes first, the peptide text is derived from it. [ ]: non-standard residue; d: D form.

Key:
[1] = tested on: HL-60 cells; test: HL-60 responses in PM1a, PM6, PM7 and PM8 plates; type: cell-based, human
Experimental: In this Example, methods for testing unattached cells for their ability to use various carbon sources including di and tri-peptides are described.
After washing, HL-60 cells were resuspended in DME-R. An aliquot of the cell suspension was counted by trypan blue exclusion and the cell density was adjusted to 1×10^6/mL. Fifty μL of DME-R were added to each well of the appropriate number of half area, 96-well plates. The cells were plated at a volume of 50 μL/well, giving a final cell density of 5×10^4/well. PM1a, MP6, PM7, and PM8 MICROPLATE testing plates were inoculated (these MICROPLATE testing plates are available from Biolog under license). For each plate containing chemicals and cells, a second, control plate containing only chemicals was prepared. All wells contained a total volume of 100 μL. Plates were incubated at 5% CO2, 90-100% humidity, and 37° C. for 1 hour prior to addition of the MTS/MPMS colorometric reagent (5 μL/well). The color formed in each well after an additional 24 hour incubation period, was measured on a plate reader at 490 nm with a reference wavelength of 650 nm. OD values from the control plate were subtracted from the OD values obtained with cells prior to normalizing the data to % negative control (cells without added energy source).

[2] = tested on: E. coli MG1655; type: cell-based, Escherichia coli
[3] = tested on: ten strains of E. coli; type: cell-based, Escherichia coli
[4] = tested on: HL-60 cells; test: Effect of 10 mM citric acid on HL-60 energy utilization; type: cell-based, human
[5] = tested on: E. coli MG1655; type: cell-based, Escherichia coli; remark: listed apart in the source
[6] = PM6, PM7, PM8, positive = greater than 130% of the negative control

CC(C)C[C@H](NC(=O)CNC(=O)CN)C(=O)O
response of HL-60 cells to peptides [1]: positive response

O=P(O)(O)OCC(O)CO (racemic) [D,L-α-glycerol phosphate]
suitability as phosphorus source (growth, purple color) [2]: positive | carbon source utilization [3]: + and −

C[C@@H](N)C(=O)N[C@H](C)C(=O)O [D-ala-D-ala] (H-[dA]-[dA]-OH)
response of HL-60 cells to peptides [1, 6]: positive response

O=C1O[C@@H]([C@H](O)CO)[C@H](O)[C@H]1O [D-galactonic acid-γ-lactone]
cell activity in the presence of citric acid, in words [4]: capable of overcoming the antiproliferative effects of citric acid | carbon source utilization [3]: − and + | carbon source utilization (text) [3]: negative

O=C(CO)[C@@H](O)[C@H](O)[C@H](O)COP(=O)(O)O [Fructose-6-phosphate]
suitability as phosphorus source (growth, purple color) [2]: positive | carbon source utilization [3]: +

O=P(O)(O)O[C@H]1O[C@H](CO)[C@@H](O)[C@H](O)[C@H]1O [Glucose-1-phosphate]
suitability as phosphorus source (growth, purple color) [2]: positive | carbon source utilization [3]: +

O=C[C@H](O)[C@@H](O)[C@H](O)[C@H](O)COP(=O)(O)O [Glucose-6-phosphate]
suitability as phosphorus source (growth, purple color) [2]: positive | carbon source utilization [3]: +

N[C@@H](CS)C(=O)O [L-cysteine]
suitability as sulfur source (growth, purple color) [2]: positive | suitability as nitrogen source (growth, purple color) [5]: not suitable

O=C1O[C@H]([C@@H](O)CO)[C@@H](O)[C@@H]1O [L-galactonic acid γ-lactone]
cell activity in the presence of citric acid, in words [4]: capable of overcoming the antiproliferative effects of citric acid | carbon source utilization [3]: +

COC(=O)CCC(=O)O [Mono-methyl succinate]
cell activity, % of the control without citric acid ([4]; 10 mM citric acid): up to 210% | carbon source utilization [3]: +

NC(=O)CC[C@H](N)C(=O)N[C@@H](CCC(=O)O)C(=O)O [gln-glu] (H-Gln-Glu-OH)
response of HL-60 cells to peptides [1, 6]: positive response

NCC(=O)N[C@H](CO)C(=O)O [gly-D-ser] (H-Gly-[dS]-OH)
response of HL-60 cells to peptides [1, 6]: positive response

CC(C)[C@@H](NC(=O)CN)C(=O)O [gly-D-val] (H-Gly-[dV]-OH)
response of HL-60 cells to peptides [1, 6]: positive response

CC[C@H](C)[C@H](NC(=O)CNC(=O)CN)C(=O)O [gly-gly-ile] (H-Gly-Gly-Ile-OH)
response of HL-60 cells to peptides [1, 6]: positive response

NCC(=O)NCC(=O)O [gly-gly] (H-Gly-Gly-OH)
response of HL-60 cells to peptides [1, 6]: positive response

NCC(=O)N[C@@H](Cc1cnc[nH]1)C(=O)O [gly-his] (H-Gly-His-OH)
response of HL-60 cells to peptides [1, 6]: positive response

CC(C)[C@H](NC(=O)CN)C(=O)O [gly-val] (H-Gly-Val-OH)
response of HL-60 cells to peptides [1, 6]: positive response

Nc1nc2c(ncn2[C@@H]2O[C@H](CO)[C@H]3OP(=O)(O)O[C@H]32)c(=O)[nH]1 [guanosine 2′:3′-cyclic monophosphate]
suitability as phosphorus source (growth, purple color) [2]: positive

Nc1nc2c(ncn2[C@@H]2O[C@H](CO)[C@@H](OP(=O)(O)O)[C@H]2O)c(=O)[nH]1 [guanosine 3′-monophosphate]
suitability as phosphorus source (growth, purple color) [2]: positive

Nc1nc2c(ncn2[C@@H]2O[C@@H]3COP(=O)(O)O[C@H]3[C@H]2O)c(=O)[nH]1 [guanosine 3′:5′-cyclic monophosphate]
suitability as phosphorus source (growth, purple color) [2]: not suitable

N[C@@H](Cc1cnc[nH]1)C(=O)N[C@@H](CC(=O)O)C(=O)O [his-asp] (H-His-Asp-OH)
response of HL-60 cells to peptides [1, 6]: positive response

N[C@@H](Cc1cnc[nH]1)C(=O)N[C@@H](Cc1cnc[nH]1)C(=O)O [his-his]
response of HL-60 cells to peptides [1, 6]: positive response

NCCS(=O)O [hypotaurine]
suitability as sulfur source (growth, purple color) [2]: positive

CC[C@H](C)[C@H](N)C(=O)N[C@@H](CCC(N)=O)C(=O)O [ile-gln] (H-Ile-Gln-OH)
response of HL-60 cells to peptides [1, 6]: positive response

O=P(O)(O)O[C@H]1[C@H](OP(=O)(O)O)[C@@H](OP(=O)(O)O)[C@H](OP(=O)(O)O)[C@@H](OP(=O)(O)O)[C@H]1OP(=O)(O)O [inositol hexaphosphate]
suitability as phosphorus source (growth, purple color) [2]: not suitable

O=S(=O)(O)CCO [isethionate]
suitability as sulfur source (growth, purple color) [2]: positive

N[C@@H](CSC[C@H](N)C(=O)O)C(=O)O [lanthionine]
suitability as sulfur source (growth, purple color) [2]: positive

O=P(O)(O)OC1O[C@H](CO)[C@@H](O)[C@H](O)[C@@H]1O (some centres unmarked) [mannose 1-phosphate]
suitability as phosphorus source (growth, purple color) [2]: positive

O=C[C@@H](O)[C@@H](O)[C@H](O)[C@H](O)COP(=O)(O)O [mannose 6-phosphate]
suitability as phosphorus source (growth, purple color) [2]: positive

O=P(O)(O)CP(=O)(O)O [methylene diphosphonic acid]
suitability as phosphorus source (growth, purple color) [2]: not suitable

O=[N+]([O-])c1ccc(OP(=O)(O)O)cc1 [nitrophenyl phosphate]
suitability as phosphorus source (growth, purple color) [2]: not suitable

N[C@@H](Cc1ccccc1)C(=O)N[C@@H](CC(=O)O)C(=O)O [phe-asp] (H-Phe-Asp-OH)
response of HL-60 cells to peptides [1, 6]: positive response

CN(CC(=O)O)C(=N)NP(=O)(O)O [phosphocreatine]
suitability as phosphorus source (growth, purple color) [2]: positive

C=C(OP(=O)(O)O)C(=O)O [phosphoenol pyruvate]
suitability as phosphorus source (growth, purple color) [2]: positive

O=C(O)COP(=O)(O)O [phosphoglycolic acid]
suitability as phosphorus source (growth, purple color) [2]: positive

O=C(O)CP(=O)(O)O [phosphonoacetic acid]
suitability as phosphorus source (growth, purple color) [2]: not suitable

C[C@H](NC(=O)[C@@H]1CCCN1)C(=O)O [pro-ala] (H-Pro-Ala-OH)
response of HL-60 cells to peptides [1, 6]: positive response

O=C(O)[C@H](Cc1c[nH]c2ccccc12)NC(=O)[C@@H]1CCCN1 [pro-trp] (H-Pro-Trp-OH)
response of HL-60 cells to peptides [1, 6]: positive response

O=P(O)(O)OP(=O)(O)O [pyrophosphate]
suitability as phosphorus source (growth, purple color) [2]: not suitable

CC(C)CC(NC(=O)C(N)CO)C(=O)O (stereo not drawn) [ser-leu] (H-Ser-Leu-OH; configuration not given here)
response of HL-60 cells to peptides [1, 6]: positive response

CSCC[C@H](NC(=O)[C@@H](N)CO)C(=O)O [ser-met] (H-Ser-Met-OH)
response of HL-60 cells to peptides [1, 6]: positive response

N[C@@H](CO)C(=O)N[C@@H](Cc1ccccc1)C(=O)O [ser-phe]
response of HL-60 cells to peptides [1]: positive response

NCCS(=O)(=O)O [taurine]
suitability as sulfur source (growth, purple color) [2]: positive

C[C@H](CCC(=O)NCCS(=O)(=O)O)[C@H]1CC[C@H]2[C@@H]3[C@H](O)C[C@@H]4C[C@H](O)CC[C@]4(C)[C@H]3C[C@H](O)[C@]12C [taurocholic acid]
suitability as sulfur source (growth, purple color) [2]: positive

O=S1(=O)CCCC1 [tetramethylene sulfone]
suitability as sulfur source (growth, purple color) [2]: not suitable

O=S(=O)(O)SSS(=O)(=O)O [tetrathionate]
suitability as sulfur source (growth, purple color) [2]: positive

O=C(O)CS [thioglycolic acid]
suitability as sulfur source (growth, purple color) [2]: not suitable

OP(O)(O)=S [thiophosphate]
suitability as phosphorus source (growth, purple color) [2]: positive | suitability as sulfur source (growth, purple color) [2]: positive

O=S(O)(O)=S [thiosulfate]
suitability as sulfur source (growth, purple color) [2]: positive

CSCC[C@H](NC(=O)[C@@H](N)[C@@H](C)O)C(=O)O [thr-met] (H-Thr-Met-OH)
response of HL-60 cells to peptides [1, 6]: positive response

C[C@@H](O)[C@H](N)C(=O)N1CCC[C@H]1C(=O)O [thr-pro] (H-Thr-Pro-OH)
response of HL-60 cells to peptides [1, 6]: positive response

Cc1cn([C@H]2C[C@@H]3OP(=O)(O)OC[C@H]3O2)c(=O)[nH]c1=O [thymidine 3′:5′-cyclic monophosphate]
suitability as phosphorus source (growth, purple color) [2]: not suitable

Cc1cn([C@H]2C[C@H](O)[C@@H](COP(=O)(O)O)O2)c(=O)[nH]c1=O [thymidine 5′-monophosphate]
suitability as phosphorus source (growth, purple color) [2]: positive

Cc1cn([C@H]2C[C@H](OP(=O)(O)O)[C@@H](CO)O2)c(=O)[nH]c1=O [thyrnidine 3′-monophosphate]
suitability as phosphorus source (growth, purple color) [2]: positive

O=P(O)(O)OP(=O)(O)OP(=O)(O)O [tripolyphosphate]
suitability as phosphorus source (growth, purple color) [2]: not suitable

O=c1ccn([C@@H]2O[C@H](CO)[C@@H](O)[C@H]2OP(=O)(O)O)c(=O)[nH]1 [uridine 2′-monophosphate]
suitability as phosphorus source (growth, purple color) [2]: positive

O=c1ccn([C@@H]2O[C@H](CO)[C@H]3OP(=O)(O)O[C@H]32)c(=O)[nH]1 [uridine 2′:3′-cyclic monophosphate]
suitability as phosphorus source (growth, purple color) [2]: positive

O=c1ccn([C@@H]2O[C@@H]3COP(=O)(O)O[C@H]3[C@H]2O)c(=O)[nH]1 [uridine 3′:5′-cyclic monophosphate]
suitability as phosphorus source (growth, purple color) [2]: not suitable

O=P(O)(O)OC(CO)CO [β-glycerophosphate]
suitability as phosphorus source (growth, purple color) [2]: positive

O-acetyle-serine with sodium sulfate
suitability as sulfur source (growth, purple color) [2]: positive

phosphatidyl glycerol
suitability as phosphorus source (growth, purple color) [2]: not suitable
